pIC50: −log10 of the molar value.
Key:
Type in all cases: biochemical
B-Raf = target: T1, B-Raf (Homo sapiens, UniProt P15056); experiment: AlphaScreen kinase assay, B-Raf; conditions: read-out: IC50, activity toward kinase B-Raf
T1 construct: purchased Upstate Biotechnology

B-Raf V600E = target: T2, B-Raf V600E (Homo sapiens, UniProt P15056, V600E); experiment: AlphaScreen kinase assay, B-Raf V600E; conditions: read-out: IC50, activity toward kinase B-Raf V600E
T2 construct: P4254. pFastBacBD-CDC37 BRAF D437-K722-X, V600E; His6 with pFastBac HT leader (TEV site) (N); made in house; host or cells: Sf9 (baculovirus; chaperone CDC37 co-expressed)
T2 sequence (P15056 with tags, fused parts or gaps V600E): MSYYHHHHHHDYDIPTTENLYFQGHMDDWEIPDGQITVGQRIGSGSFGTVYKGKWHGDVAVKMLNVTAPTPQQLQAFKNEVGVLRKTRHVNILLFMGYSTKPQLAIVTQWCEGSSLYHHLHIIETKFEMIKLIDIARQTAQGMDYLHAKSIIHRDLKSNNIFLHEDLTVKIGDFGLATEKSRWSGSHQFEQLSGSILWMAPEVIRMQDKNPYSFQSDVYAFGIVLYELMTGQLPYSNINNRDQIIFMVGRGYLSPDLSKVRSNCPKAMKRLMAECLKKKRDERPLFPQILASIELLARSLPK

c-Raf-1 = target: T3, c-Raf-1 (Homo sapiens, UniProt P04049); experiment: AlphaScreen kinase assay, c-Raf-1; conditions: read-out: IC50, activity toward kinase c-Raf-1
T3 construct: purchased Upstate Biotechnology
T3 sequence (P04049 whole entry): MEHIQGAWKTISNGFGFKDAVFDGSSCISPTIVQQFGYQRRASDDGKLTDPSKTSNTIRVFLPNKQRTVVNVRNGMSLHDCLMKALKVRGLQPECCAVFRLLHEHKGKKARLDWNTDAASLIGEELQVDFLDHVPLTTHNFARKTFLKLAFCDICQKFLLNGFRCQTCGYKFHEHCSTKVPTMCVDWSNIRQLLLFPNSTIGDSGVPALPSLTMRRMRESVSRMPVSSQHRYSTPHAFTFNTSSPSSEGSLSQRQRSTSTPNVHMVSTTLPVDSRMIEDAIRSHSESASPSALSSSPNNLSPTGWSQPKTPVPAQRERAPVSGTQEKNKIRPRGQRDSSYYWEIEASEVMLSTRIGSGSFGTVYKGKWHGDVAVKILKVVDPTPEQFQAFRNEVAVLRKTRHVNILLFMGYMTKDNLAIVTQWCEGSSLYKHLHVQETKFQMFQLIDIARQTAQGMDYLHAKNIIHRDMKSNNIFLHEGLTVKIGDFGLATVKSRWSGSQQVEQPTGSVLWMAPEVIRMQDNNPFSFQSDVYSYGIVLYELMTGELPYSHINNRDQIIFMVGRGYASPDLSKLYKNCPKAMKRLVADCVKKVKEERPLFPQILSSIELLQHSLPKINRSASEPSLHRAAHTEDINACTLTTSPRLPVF

FGFR1 = target: T4, FGFR1 (Homo sapiens, UniProt P11362, C488A/C584S); experiment: AlphaScreen kinase assay, FGFR1; conditions: read-out: IC50, activity toward kinase FGFR
T4 construct: P1351.pET N6 BI-PTP FGFR A458-E765-X C488A, C584S; made in house; host or cells: E. coli (PTP1B co-expressed)
T4 sequence (P11362 458-765 C488A/C584S): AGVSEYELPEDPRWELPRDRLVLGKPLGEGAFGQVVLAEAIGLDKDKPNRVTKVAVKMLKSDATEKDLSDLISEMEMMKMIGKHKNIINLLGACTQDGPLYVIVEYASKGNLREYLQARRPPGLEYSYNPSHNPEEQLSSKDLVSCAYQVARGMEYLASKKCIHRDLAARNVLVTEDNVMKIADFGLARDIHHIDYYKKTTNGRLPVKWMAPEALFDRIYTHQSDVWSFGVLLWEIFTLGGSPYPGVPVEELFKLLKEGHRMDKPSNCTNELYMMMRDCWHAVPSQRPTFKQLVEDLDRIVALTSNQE

Jnk1 = target: T5, Jnk1 (Homo sapiens, UniProt P45983); experiment: AlphaScreen kinase assay, Jnk1; conditions: read-out: IC50, activity toward kinase Jnk1
T5 construct: purchased Upstate Biotechnology
T5 sequence (P45983 whole entry): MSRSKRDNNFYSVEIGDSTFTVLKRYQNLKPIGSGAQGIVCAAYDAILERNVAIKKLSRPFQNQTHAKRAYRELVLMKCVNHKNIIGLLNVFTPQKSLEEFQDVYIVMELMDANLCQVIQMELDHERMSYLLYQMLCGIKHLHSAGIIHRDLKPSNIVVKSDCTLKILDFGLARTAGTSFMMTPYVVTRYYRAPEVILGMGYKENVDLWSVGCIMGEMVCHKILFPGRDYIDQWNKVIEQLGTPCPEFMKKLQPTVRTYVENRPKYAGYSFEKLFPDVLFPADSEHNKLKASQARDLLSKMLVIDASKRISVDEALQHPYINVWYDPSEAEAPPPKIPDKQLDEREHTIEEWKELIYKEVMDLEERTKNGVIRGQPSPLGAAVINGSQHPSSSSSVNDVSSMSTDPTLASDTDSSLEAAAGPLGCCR

Kit = target: T6, Kit (Homo sapiens, UniProt P10721); experiment: AlphaScreen kinase assay, Kit; conditions: read-out: IC50, activity toward kinase Kit
T6 construct: P1332.N6 BI PTP KIT M552-K948-X COD; His6 (N); made in house; host or cells: E. coli (PTP1B co-expressed)
T6 sequence (P10721 with tags, fused parts or gaps): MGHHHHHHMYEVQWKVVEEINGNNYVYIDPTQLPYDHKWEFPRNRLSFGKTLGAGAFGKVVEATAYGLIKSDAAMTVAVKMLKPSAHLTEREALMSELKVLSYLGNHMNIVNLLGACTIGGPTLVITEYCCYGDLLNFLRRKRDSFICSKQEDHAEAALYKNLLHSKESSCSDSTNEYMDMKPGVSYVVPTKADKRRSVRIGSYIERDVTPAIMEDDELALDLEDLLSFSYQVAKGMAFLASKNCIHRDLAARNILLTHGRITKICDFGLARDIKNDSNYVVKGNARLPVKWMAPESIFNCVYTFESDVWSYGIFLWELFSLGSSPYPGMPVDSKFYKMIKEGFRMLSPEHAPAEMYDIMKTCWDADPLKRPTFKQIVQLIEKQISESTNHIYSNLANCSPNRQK

Flt1 = target: T7, Flt1 (Homo sapiens, UniProt P17948); experiment: AlphaScreen kinase assay, Flt1; conditions: read-out: IC50, activity toward kinase Flt1
T7 construct: P1826.pETN6 BI-PTP FLT1 M799-D1165-X WT; His6 (N); made in house; host or cells: E. coli (PTP1B co-expressed)
T7 sequence (P17948 with tags, fused parts or gaps): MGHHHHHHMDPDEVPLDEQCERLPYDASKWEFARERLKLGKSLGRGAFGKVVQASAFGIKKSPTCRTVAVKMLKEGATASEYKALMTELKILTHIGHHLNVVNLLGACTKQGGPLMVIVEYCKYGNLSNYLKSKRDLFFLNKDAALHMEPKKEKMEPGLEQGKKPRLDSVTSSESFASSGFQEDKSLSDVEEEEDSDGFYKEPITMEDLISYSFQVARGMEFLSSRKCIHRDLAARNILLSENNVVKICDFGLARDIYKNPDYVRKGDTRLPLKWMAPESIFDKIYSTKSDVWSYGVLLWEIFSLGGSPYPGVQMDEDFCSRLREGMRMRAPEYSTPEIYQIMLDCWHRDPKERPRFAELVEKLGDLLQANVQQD

Fms = target: T8, Fms (Homo sapiens, UniProt P07333); experiment: AlphaScreen kinase assay, Fms; conditions: read-out: IC50, activity toward kinase Fms
T8 construct: purchased Upstate Biotechnology
T8 sequence (P07333 20-972): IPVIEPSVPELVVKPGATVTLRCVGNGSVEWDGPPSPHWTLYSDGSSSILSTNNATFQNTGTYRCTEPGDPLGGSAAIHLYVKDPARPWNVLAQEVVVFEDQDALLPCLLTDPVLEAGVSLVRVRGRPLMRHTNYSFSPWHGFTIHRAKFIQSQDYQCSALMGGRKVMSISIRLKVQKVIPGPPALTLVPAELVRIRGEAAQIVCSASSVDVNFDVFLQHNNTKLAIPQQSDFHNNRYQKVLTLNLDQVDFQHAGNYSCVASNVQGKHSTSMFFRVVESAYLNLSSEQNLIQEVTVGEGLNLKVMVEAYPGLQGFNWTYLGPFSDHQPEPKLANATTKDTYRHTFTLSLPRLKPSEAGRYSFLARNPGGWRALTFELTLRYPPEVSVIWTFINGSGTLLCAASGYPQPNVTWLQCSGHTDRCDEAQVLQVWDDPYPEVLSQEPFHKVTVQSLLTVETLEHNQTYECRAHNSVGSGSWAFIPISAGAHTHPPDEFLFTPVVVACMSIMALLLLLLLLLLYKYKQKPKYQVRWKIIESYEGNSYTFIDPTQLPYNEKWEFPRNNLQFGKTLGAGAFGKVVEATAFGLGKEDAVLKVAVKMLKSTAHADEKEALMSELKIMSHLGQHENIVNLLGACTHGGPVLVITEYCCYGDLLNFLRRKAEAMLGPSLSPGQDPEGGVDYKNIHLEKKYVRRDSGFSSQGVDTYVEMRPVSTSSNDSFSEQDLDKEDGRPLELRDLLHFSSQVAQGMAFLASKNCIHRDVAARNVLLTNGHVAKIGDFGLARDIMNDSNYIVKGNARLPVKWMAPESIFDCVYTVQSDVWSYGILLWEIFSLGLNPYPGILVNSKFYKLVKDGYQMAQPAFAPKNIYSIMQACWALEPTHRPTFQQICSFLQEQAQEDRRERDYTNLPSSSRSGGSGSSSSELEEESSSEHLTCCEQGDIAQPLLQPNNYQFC

Jnk3 = target: T9, Jnk3 (Homo sapiens, UniProt P53779); experiment: AlphaScreen kinase assay, Jnk3; conditions: read-out: IC50, activity toward kinase Jnk3
T9 construct: purchased Upstate Biotechnology
T9 sequence (P53779 whole entry): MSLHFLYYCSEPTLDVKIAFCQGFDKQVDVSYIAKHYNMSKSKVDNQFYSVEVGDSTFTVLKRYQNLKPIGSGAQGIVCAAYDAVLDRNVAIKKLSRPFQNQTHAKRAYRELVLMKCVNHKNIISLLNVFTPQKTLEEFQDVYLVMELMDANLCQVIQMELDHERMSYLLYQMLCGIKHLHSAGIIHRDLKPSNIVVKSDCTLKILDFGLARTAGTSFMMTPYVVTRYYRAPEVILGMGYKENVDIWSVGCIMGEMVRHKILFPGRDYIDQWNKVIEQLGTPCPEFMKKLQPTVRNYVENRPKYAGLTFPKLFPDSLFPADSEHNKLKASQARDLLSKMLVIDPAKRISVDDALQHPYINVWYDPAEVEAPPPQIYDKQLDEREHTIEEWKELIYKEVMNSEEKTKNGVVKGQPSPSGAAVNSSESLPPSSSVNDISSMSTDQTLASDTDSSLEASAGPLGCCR

Ret = target: T10, Ret (Homo sapiens, UniProt P07949); experiment: AlphaScreen kinase assay, Ret; conditions: read-out: IC50, activity toward kinase Ret
T10 construct: P1378.pET-SF BI-PTP RET H661-R1012 HIS; made in house
T10 sequence (P07949 with tags, fused parts or gaps): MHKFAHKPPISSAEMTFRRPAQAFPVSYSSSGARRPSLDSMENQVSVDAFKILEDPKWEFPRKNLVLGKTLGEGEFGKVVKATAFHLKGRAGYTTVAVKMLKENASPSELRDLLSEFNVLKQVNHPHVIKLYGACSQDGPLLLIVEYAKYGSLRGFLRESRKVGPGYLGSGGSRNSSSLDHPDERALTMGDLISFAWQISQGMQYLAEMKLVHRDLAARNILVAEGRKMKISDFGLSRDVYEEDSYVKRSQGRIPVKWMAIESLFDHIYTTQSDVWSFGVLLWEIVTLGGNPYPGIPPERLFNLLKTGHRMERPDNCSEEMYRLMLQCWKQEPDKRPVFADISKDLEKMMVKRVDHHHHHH

T1 sequence (P15056 whole entry): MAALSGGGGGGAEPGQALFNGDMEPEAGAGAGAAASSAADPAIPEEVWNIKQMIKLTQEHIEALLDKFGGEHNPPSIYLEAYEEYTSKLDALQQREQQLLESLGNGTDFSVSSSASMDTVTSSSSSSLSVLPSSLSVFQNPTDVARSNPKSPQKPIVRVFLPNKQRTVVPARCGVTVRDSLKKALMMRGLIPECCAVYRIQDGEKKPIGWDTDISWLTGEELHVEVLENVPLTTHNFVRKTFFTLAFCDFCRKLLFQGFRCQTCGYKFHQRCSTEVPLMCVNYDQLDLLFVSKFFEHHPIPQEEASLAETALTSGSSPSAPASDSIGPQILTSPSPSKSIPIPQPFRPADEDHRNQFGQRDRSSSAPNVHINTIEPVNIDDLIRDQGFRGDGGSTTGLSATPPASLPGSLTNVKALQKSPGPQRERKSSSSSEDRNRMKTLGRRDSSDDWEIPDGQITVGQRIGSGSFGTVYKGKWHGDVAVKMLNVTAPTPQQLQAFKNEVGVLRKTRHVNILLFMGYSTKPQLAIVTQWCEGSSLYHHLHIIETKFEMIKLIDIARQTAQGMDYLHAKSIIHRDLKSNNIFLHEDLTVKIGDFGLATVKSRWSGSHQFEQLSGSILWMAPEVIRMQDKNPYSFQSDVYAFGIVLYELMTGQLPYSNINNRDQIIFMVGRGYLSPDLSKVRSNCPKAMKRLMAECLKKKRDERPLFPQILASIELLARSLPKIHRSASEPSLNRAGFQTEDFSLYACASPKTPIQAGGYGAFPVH

SMILES	pIC50 (B-Raf)	pIC50 (B-Raf V600E)	pIC50 (c-Raf-1)	pIC50 (FGFR1)	pIC50 (Jnk1)	pIC50 (Kit)	pIC50 (Flt1)	pIC50 (Fms)	pIC50 (Jnk3)	pIC50 (Ret)
O=C(Nc1cccc(C(=O)c2c[nH]c3ncccc23)c1)Nc1ccc(F)c(F)c1 [Compound P-1706, 1-(3,4-Difluoro-phenyl)-3-[3-(1H-pyrrolo[2,3-b]pyridine-3-carbonyl)-phenyl]-urea]	≥ 5.00	≥ 5.00	–	–	≥ 5.00	≥ 5.00	–	≥ 5.00	≥ 5.00	–
COc1ccc(NC(=O)Nc2cccc(C(=O)c3c[nH]c4ncccc34)c2)cc1OC [Compound P-1708, 1-(3,4-Dimethoxy-phenyl)-3-[3-(1H-pyrrolo[2,3-b]pyridine-3-carbonyl)-phenyl]-urea]	≥ 5.00	≥ 5.00	–	–	≥ 5.00	≥ 5.00	–	≥ 5.00	–	–
CCCS(=O)(=O)Nc1ccc(F)c(C(=O)c2c[nH]c3ncc(-c4cccc(N5CCOCC5)c4)cc23)c1F [Compound P-1873, Propane-1-sulfonic acid {2,4-difluoro-3-[5-(3-morpholin-4-yl-phenyl)-1H-pyrrolo[2,3-b]pyridine-3-carbonyl]-phenyl}-amide]	≥ 5.00	≥ 5.00	≥ 5.00	–	≥ 5.00	≥ 5.00	–	≥ 5.00	–	–
CCCS(=O)(=O)Nc1ccc(F)c(C(=O)c2c[nH]c3ncc(-c4cccc(CN5CCOCC5)c4)cc23)c1F [Compound P-1878, Propane-1-sulfonic acid {2,4-difluoro-3-[5-(3-morpholin-4-ylmethyl-phenyl)-1H-pyrrolo[2,3-b]pyridine-3-carbonyl]-phenyl}-amide]	≥ 5.00	≥ 5.00	≥ 5.00	–	≥ 5.00	≥ 5.00	–	≥ 5.00	–	–
O=C(Nc1cccc(C(=O)c2c[nH]c3ncc(Cl)cc23)c1)Nc1ccon1 [Compound P-1775, 1-[3-(5-Chloro-1H-pyrrolo[2,3-b]pyridine-3-carbonyl)-phenyl]-3-isoxazol-3-yl-urea]	≥ 5.00	≥ 5.00	–	–	≥ 5.00	–	–	≥ 5.00	≥ 5.00	–
CCCS(=O)(=O)Nc1ccc(F)c(C(=O)c2c[nH]c3ncc(-c4ccc(OC)nc4)cc23)c1F [Compound P-1879, Propane-1-sulfonic acid {2,4-difluoro-3-[5-(6-methoxy-pyridin-3-yl)-1H-pyrrolo[2,3-b]pyridine-3-carbonyl]-phenyl}-amide]	≥ 5.00	≥ 5.00	≥ 5.00	–	≥ 5.00	≥ 5.00	–	≥ 5.00	–	–
CCCCN(CCCC)C(=O)n1ccc2c(C(=O)c3c[nH]c4ncc(-c5cccnc5)cc34)cccc21 [Compound P-1636, 4-(5-pyridin-3-yl-1H-pyrrolo[2,3-b]pyridine-3-carbonyl)-indole-1-carboxylic acid dibutylamide]	≥ 5.00	≥ 5.00	–	–	≥ 5.00	–	–	≥ 5.00	≥ 5.00	–
O=C(NCc1ccccc1)Nc1cccc(C(=O)c2c[nH]c3ncc(Br)cc23)c1 [Compound P-1553, 1-Benzyl-3-[3-(5-bromo-1H-pyrrolo[2,3-b]pyridine-3-carbonyl)-phenyl]-urea]	≥ 5.00	≥ 5.00	–	–	≥ 5.00	≥ 5.00	≥ 5.00	≥ 5.00	–	–
CCCS(=O)(=O)Nc1ccc(F)c(C(=O)c2c[nH]c3ncc(-c4ccc(F)cc4)cc23)c1F [Compound P-1260, Propane-1-sulfonic acid {2,4-difluoro-3-[5-(4-fluoro-phenyl)-1H-pyrrolo[2.3 b]pyridine-3-carbonyl]-phenyl}-amide]	≥ 5.00	≥ 5.00	≥ 5.00	≥ 5.00	≥ 5.00	≥ 5.00	≥ 5.00	≥ 5.00	–	–
O=C(c1c[nH]c2ncc(-c3cccnc3)cc12)c1cccc2c1ccn2COCc1ccccc1 [Compound P-1523, (1-Benzyloxymethyl-1H-indol-4-yl)-(5-pyridin-3-yl-1H-pyrrolo[2,3-b]pyridin-3-yl)-methanone]	–	–	–	–	≥ 5.00	–	≥ 5.00	–	–	–
COc1cccc(NC(=O)Nc2cccc(C(=O)c3c[nH]c4ncccc34)c2)c1 [Compound P-1707, 1-(3-Methoxy-phenyl)-3-[3-(1H-pyrrolo[2,3-b]pyridine-3-carbonyl)-phenyl]-urea]	≥ 5.00	≥ 5.00	–	–	≥ 5.00	≥ 5.00	–	≥ 5.00	≥ 5.00	–
CCCS(=O)(=O)Nc1ccc(F)c(C(=O)c2c[nH]c3ncc(-c4cccc(C(N)=O)c4)cc23)c1F [Compound P-1549, 3-{3-[2,6-Difluoro-3-(propane-1-sulfonylamino)-benzoyl]-1H-pyrrolo[2,3-b]pyridin-5-yl}-benzamide]	≥ 5.00	≥ 5.00	–	≥ 5.00	≥ 5.00	≥ 5.00	≥ 5.00	≥ 5.00	–	–

Second part, the compound after the results:

pIC50 (B-Raf)	pIC50 (B-Raf V600E)	pIC50 (c-Raf-1)	pIC50 (FGFR1)	pIC50 (Jnk1)	pIC50 (Kit)	pIC50 (Flt1)	pIC50 (Fms)	pIC50 (Jnk3)	pIC50 (Ret)	SMILES
≥ 5.00	≥ 5.00	≥ 5.00	≥ 5.00	≥ 5.00	≥ 5.00	–	–	–	–	CCCS(=O)(=O)Nc1ccc(F)c(C(=O)c2c[nH]c3ncc(N4CCC(C)CC4)cc23)c1F [Compound P-0860, propane-1-sulfonic acid {2,4-difluoro-3-[5-(4-methyl-piperidin-1-yl)-1H-pyrrolo[2,3-b]pyridine-3-carbonyl]-phenyl}-amide]
≥ 5.00	≥ 5.00	–	–	≥ 5.00	–	≥ 5.00	≥ 5.00	–	–	CCCCNC(=O)Nc1cccc(C(=O)c2c[nH]c3ncc(Br)cc23)c1 [Compound P-1596, 1-[3-(5-bromo-1H-pyrrolo[2,3-b]pyridine-3-carbonyl)-phenyl]-3-butyl-urea]
–	–	–	–	≥ 5.00	–	≥ 5.00	≥ 5.00	≥ 5.00	–	O=C(c1c[nH]c2ncc(-c3ccc(Cl)cc3)cc12)c1cccc2c1ccn2C(=O)NCc1ccccc1 [Compound P-1618, 4-[5-(4-Chloro-phenyl)-1H-pyrrolo[2,3-b]pyridine-3-carbonyl]-indole-1-carboxylic acid benzylamide]
–	–	–	–	≥ 5.00	–	–	–	≥ 5.00	–	CN(C)c1ccc(Nc2ccc3cc[nH]c3n2)cc1 [Compound P-1356, N,N-Dimethyl-N′-(1H -pyrrolo[2,3-b]pyridin-6-yl)-benzene-1,4-diamine]
≥ 5.00	≥ 5.00	≥ 5.00	–	≥ 5.00	≥ 5.00	–	≥ 5.00	–	–	CC(C)c1ccc(S(=O)(=O)Nc2ccc(F)c(C(=O)c3c[nH]c4ncc(Cl)cc34)c2F)cc1 [Compound P-1839, N-[3-(5-chloro-1H-pyrrolo[2,3-b]pyridine-3-carbonyl)-2,4-difluoro-phenyl]-4-isopropyl-benzenesulfonamide]
≥ 5.00	≥ 5.00	≥ 5.00	≥ 5.00	≥ 5.00	–	–	–	–	≥ 5.00	CS(=O)(=O)Nc1cccc(-c2cnc3[nH]cc(C(=O)c4c(Cl)ccc(NS(C)(=O)=O)c4F)c3c2)c1 [Compound P-0745, N-{4-Chloro-2-fluoro-3-[5-(3-methanesulfonylamino-phenyl)-1H-pyrrolo[2,3-b]pyridine-3-carbonyl]-phenyl}-methanesulfonamide]
≥ 5.00	≥ 5.00	–	≥ 5.00	≥ 5.00	–	≥ 5.00	≥ 5.00	–	–	O=C(c1ccc(Cl)cc1Cl)c1c[nH]c2ncc(-c3cccnc3)cc12 [Compound P-1556]
